Assay results reported in patent publication US20250268821A1 (AVALYN PHARMA INC., priority 2022, published 2025).
Read-outs that look alike come from different tables or passages of the source.

How the values were obtained:
[1] = biological target: T1, Flt-3 (Homo sapiens, UniProt P36888); conditions: cited from earlier work
T1 sequence (P36888 27-993): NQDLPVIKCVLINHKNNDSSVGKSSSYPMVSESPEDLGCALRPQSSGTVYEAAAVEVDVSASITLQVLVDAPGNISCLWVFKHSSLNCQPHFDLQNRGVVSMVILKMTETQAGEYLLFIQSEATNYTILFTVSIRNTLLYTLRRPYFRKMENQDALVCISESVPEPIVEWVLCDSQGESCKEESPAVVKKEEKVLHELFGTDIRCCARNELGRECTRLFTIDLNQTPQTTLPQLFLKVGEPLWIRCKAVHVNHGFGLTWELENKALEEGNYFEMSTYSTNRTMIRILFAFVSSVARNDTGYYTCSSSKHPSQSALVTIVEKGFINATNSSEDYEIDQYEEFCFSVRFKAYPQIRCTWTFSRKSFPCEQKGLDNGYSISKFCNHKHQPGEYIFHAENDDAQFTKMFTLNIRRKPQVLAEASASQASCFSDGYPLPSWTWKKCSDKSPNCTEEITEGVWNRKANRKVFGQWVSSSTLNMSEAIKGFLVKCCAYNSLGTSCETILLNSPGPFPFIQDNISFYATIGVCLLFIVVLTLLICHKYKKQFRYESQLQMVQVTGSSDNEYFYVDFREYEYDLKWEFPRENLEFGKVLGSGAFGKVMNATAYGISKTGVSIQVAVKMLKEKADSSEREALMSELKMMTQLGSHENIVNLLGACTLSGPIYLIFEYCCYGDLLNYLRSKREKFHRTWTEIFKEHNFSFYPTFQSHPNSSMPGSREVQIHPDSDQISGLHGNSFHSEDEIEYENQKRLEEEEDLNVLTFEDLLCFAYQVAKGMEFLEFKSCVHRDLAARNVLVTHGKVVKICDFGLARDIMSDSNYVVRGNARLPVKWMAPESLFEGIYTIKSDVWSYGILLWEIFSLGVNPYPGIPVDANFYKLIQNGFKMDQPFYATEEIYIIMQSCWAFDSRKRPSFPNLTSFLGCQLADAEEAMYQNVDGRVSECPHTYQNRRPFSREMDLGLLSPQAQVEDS

[2] = Pirfenidone-nintedanib interaction: physical stability of nintedanib solution in 67 mM sodium chloride; type: physicochemical; conditions: 0.25 mg/mL nintedanib, about 67 mM sodium chloride
[3] = Clinical study in healthy volunteers: inhaled nebulized vs oral nintedanib (ELF and plasma pharmacokinetics, safety); type: in vivo; conditions: human
From the text: To characterize how dry powder nintedanib may perform in humans, a clinical study was first conducted comparing inhaled nebulized and oral nintedanib in healthy volunteers.

[4] = Sheep pharmacokinetics (ELF and plasma): nebulized inhaled nintedanib, fixed combination with pirfenidone, oral nintedanib; type: in vivo; conditions: for Cmax / AUC / half-life / Tmax: female, Merino cross-bred, sheep
Procedure: All animals had received standard vaccinations and were treated orally with anthelminthic (in line with standard management practices) prior to arrival at the animal facility to eliminate any worm parasites before experimentation. Experimental animals were rotated between indoor small group pen housing and metabolism cages under controlled ambient conditions (20-22° C.) and maintained on a 12 h light/dark throughout the experimental period. […] All formulations used in this study were stored at room temperature (RT) and protected from light prior to use; drugs were prepared on day of use. Sheep arrived into the facility as one group and were acclimatized over 2-3 weeks (group housing to indoor cage/pens) prior to experimentation. […] Group 1 sheep also received Treatment 1b, an addition/modification to the original study protocol. Treatments were administered over Weeks 3-9 of the study; each experimental Treatment was performed over a one week period in either Group 1 or Group 2 sheep (e.g., one group received Treatment while the other group was rested). Group 1 and Group 2 sheep were allocated separate sampling schedules for peripheral blood and bronchoalveolar lavage fluid (BALF) collections (Table 16). For nebulized aerosol drug administration to the lungs (inhalation dosing), a lubricated cuffed endotracheal (ET) tube (Portex, 7.0-8.0 mm internal diameter) was inserted via the nasal passage (guided by a fibre-optic endoscope) into the trachea. […] Respiration was set to 20 breaths/min, 50% inspiration and a tidal volume of 350 mL. Filters (Hudson RCl, NC, USA) were placed in the expiratory line to collect any expired drug dose. Following drug administration all lines, filters and nebulizer components were rinsed with 50 mL sterile saline to collect any remaining or expired dose. Washout sample aliquots (500 μl) were frozen on dry ice in 1.5 mL Eppendorf tubes, then stored at −80° C. prior to shipment for drug content analyses. Oral drug administration (Treatment 3) followed the procedure as detailed below (oral dosing optimization). A feeding tube (7 mm internal diameter) was inserted via the nasal passage (guided by a fibre-optic endoscope) into the upper region of the esophagus. […] Blood samples collected prior to and following drug administration (Table 16) were placed into K3EDTA-coated tubes. […] BALF samples were collected prior to and following drug administration ([…]). Sampling was carried out by intra-lung infusion of 25 ml of sterile saline via a catheter through the biopsy port of the bronchoscope, followed by immediate retrieval of the BALF sample into the collection syringe. BALF was collected from separate lung segments/lobes to avoid contamination between sampling time-points: the right apical lobe (RA) was used for all pre-dose sampling and post-dose samples were collected from right middle (RM); right caudal (RC); left caudal (LC); left middle (LM); and left apical (LA) lung lobes. BALF sampling details (volumes, exact time of collection) were recorded and samples immediately frozen on dry ice, then stored at −80° C. prior to shipment for drug content analyses.

[5] = in vivo; cited from earlier work
[6] = previously known; various salt forms; cited from earlier work
[7] = biological target: Src (Homo sapiens, UniProt P12931); conditions: cited from earlier work
Src, sequence (P12931 whole entry, species assumed): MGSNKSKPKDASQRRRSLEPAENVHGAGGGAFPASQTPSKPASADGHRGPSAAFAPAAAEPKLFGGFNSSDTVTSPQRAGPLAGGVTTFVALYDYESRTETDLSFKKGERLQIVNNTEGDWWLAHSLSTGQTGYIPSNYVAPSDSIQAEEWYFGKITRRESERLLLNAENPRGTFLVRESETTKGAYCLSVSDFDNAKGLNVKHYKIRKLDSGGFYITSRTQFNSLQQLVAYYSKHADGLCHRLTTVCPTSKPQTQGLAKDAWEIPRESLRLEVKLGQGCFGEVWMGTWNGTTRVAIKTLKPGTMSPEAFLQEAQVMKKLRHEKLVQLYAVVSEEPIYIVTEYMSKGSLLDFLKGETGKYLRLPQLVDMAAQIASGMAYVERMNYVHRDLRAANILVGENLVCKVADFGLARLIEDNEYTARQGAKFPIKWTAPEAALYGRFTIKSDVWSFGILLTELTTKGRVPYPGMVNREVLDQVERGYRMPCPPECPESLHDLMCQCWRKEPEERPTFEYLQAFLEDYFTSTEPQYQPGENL

[8] = biological target: Lyn (Homo sapiens, UniProt P07948); conditions: cited from earlier work
Lyn, sequence (P07948 whole entry, species assumed): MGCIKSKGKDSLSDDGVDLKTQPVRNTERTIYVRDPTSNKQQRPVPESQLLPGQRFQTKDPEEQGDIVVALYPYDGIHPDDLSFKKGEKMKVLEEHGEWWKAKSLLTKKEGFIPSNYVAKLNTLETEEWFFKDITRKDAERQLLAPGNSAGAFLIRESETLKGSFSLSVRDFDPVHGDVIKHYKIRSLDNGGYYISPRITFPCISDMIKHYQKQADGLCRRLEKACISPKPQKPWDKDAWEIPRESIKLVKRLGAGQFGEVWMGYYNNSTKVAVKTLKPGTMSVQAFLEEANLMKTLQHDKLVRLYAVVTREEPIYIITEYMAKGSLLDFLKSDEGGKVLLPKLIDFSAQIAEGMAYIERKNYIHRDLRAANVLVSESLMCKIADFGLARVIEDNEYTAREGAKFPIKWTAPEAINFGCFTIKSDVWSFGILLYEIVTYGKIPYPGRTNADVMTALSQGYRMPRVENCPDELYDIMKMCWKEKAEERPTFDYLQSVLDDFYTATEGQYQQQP

[9] = Particle size distribution by laser diffraction (Malvern Mastersizer 3000); type: physicochemical; conditions: for PSD D10 / PSD D50 / PSD D90: micronised API after jet milling
Procedure: Particle size distribution was measured using a Malvern Mastersizer 3000. The sample for analysis (10 mg) was suspended in 0.1% lecithin in isooctane (10 mL) and sonicated to disperse the particles prior to measurement. A single sample was prepared for each measurement.
Two batches were prepared and particle size distribution measured using a Mastersizer 3000 (Table 8).

[10] = SEM, XRPD and overall stability assessment of micronised drug substance; type: physicochemical; conditions: 1 month 25°C/60% RH and 40°C/75% RH, then four months laboratory conditions
Procedure: Scanning electron microscopy and x-ray powder diffraction were performed at the University of Bath.
SEM images were recorded (FIGS. 1 and 2) and the polymorphic stability was assessed by XRPD (FIGS. 3 and 4) and DSC (FIG. 6). The characterization was then repeated after a further four months at laboratory conditions.

[11] = Moisture content by Karl Fischer coulometry; type: physicochemical
Procedure: Three assay determinations were made for each assay and the mean value reported. Moisture content was measured by Karl Fischer coulometry using a Metrohm 851 Tritrando coulometer and sample oven. 50 mg of each sample was heated to 80° C. Lactose monohydrate was used as a bracketing standard. Single measurements were made for each sample. The emitted dose was measured using Dosage Unit Sampling Apparatus (DUSA) at 100 L/min. The samples were recovered using 50 mL of diluent. Ten determinations were performed and mean value reported

[12] = inhaled nebulized, 2 mg, IPD = immediate post dose
[13] = +4 months at laboratory conditions

COC(=O)c1ccc2c(c1)NC(=O)/C2=C(\Nc1ccc(N(C)C(=O)CN2CCN(C)CC2)cc1)c1ccccc1 [Nintedanib, methyl (3Z)-3-[[4-[methyl-[2-(4-methylpiperazin-1-yl)acetyl]amino]anilino]-phenylmethylidene]-2-oxo-1H-indole-6-carboxylate]
inhibition [1]: inhibited | pirfenidone parts per 1 part nintedanib (weight by weight) that stabilizes nintedanib in solution [2]: greater than 30 parts | AUC ([3]; epithelial lining fluid (ELF), inhaled or intranasal, inhaled nebulized liquid 2 mg, read-out: ELF AUC): 3400 ng·h/mL | Cmax ([3]; epithelial lining fluid (ELF), inhaled or intranasal, inhaled nebulized liquid 2 mg, read-out: ELF Cmax): 4660 ng/mL | AUC ([3]; epithelial lining fluid (ELF), oral tablet 150 mg, read-out: ELF AUC): 1200 ng·h/mL | Cmax ([3]; epithelial lining fluid (ELF), oral tablet 150 mg, read-out: ELF Cmax): 72.7 ng/mL | Tmax ([3]; plasma, inhaled or intranasal, inhaled nebulized liquid 2 mg): 0.2 h | AUC ([3]; plasma, inhaled or intranasal, inhaled nebulized liquid 2 mg, read-out: Plasma AUC): 4 ng·h/mL | Cmax ([3]; plasma, inhaled or intranasal, inhaled nebulized liquid 2 mg, read-out: Plasma Cmax): 2.8 ng/mL | Tmax ([3]; plasma, oral tablet 150 mg): 7.8 h | AUC ([3]; plasma, oral tablet 150 mg, read-out: Plasma AUC): 163 ng·h/mL | Cmax ([3]; plasma, oral tablet 150 mg, read-out: Plasma Cmax): 13.5 ng/mL | adverse responses to oral dosing ([4]; 75 mg oral with glucose chaser): without any adverse responses observed | Cmax ([4]; epithelial lining fluid (ELF), inhaled or intranasal, 0.06 mg/kg, inhaled nebulized liquid, 2 mg (0.06 mg/kg), read-out: ELF Cmax): 7380 ng/mL | Cmax ([4]; epithelial lining fluid (ELF), inhaled or intranasal, 0.06 mg/kg, inhaled nebulized monotherapy, 2 mg (0.06 mg/kg), Table 19, read-out: ELF Cmax): 7880 ng/mL | AUC ([4]; epithelial lining fluid (ELF), inhaled or intranasal, 2 mg, inhaled nebulized monotherapy, 2 mg, Table 19, read-out: ELF AUC): 7300 ng·h/mL | AUC ([4]; epithelial lining fluid (ELF), inhaled or intranasal, 2 mg, inhaled nebulized, 2 mg, read-out: ELF AUC): 5400 ng·h/mL | half-life ([4]; epithelial lining fluid (ELF), inhaled or intranasal, inhaled nebulized, 2 mg, read-out: ELF T1/2 (α) (converted)): 0.25 h | Cmax ([4]; epithelial lining fluid (ELF), po, 2.14 mg/kg, oral, 75 mg (2.14 mg/kg), 3 mg/mL in water, read-out: ELF Cmax): 74 ng/mL | AUC ([4]; epithelial lining fluid (ELF), po, 75 mg, oral, 75 mg, read-out: ELF AUC): 1200 ng·h/mL | half-life ([4]; epithelial lining fluid (ELF), oral, 75 mg, read-out: ELF T1/2 (converted)): 10 h | Tmax ([4]; epithelial lining fluid (ELF), oral, 75 mg, read-out: ELF Tmax): 10 h | AUC ([4]; plasma, inhaled or intranasal, 2 mg, inhaled nebulized monotherapy, 2 mg, Table 19, read-out: Plasma AUC): 4 ng·h/mL | Cmax ([4]; plasma, inhaled or intranasal, 2 mg, inhaled nebulized monotherapy, 2 mg, Table 19, read-out: Plasma Cmax): 3.9 ng/mL | AUC ([4]; plasma, inhaled or intranasal, 2 mg, inhaled nebulized, 2 mg, read-out: Plasma AUC): 7 ng·h/mL | Cmax ([4]; plasma, inhaled or intranasal, 2 mg, inhaled nebulized, 2 mg, read-out: Plasma Cmax): 5.9 ng/mL | half-life ([4]; plasma, inhaled or intranasal, inhaled nebulized, 2 mg, read-out: Plasma T1/2 (α) (converted)): 0.25 h | AUC ([4]; plasma, po, 75 mg, oral, 75 mg, read-out: Plasma AUC): 58 ng·h/mL | Cmax ([4]; plasma, po, 75 mg, oral, 75 mg, read-out: Plasma Cmax): 3.6 ng/mL | half-life ([4]; plasma, oral, 75 mg, read-out: Plasma T1/2 (converted)): 10 h | Tmax ([4]; plasma, oral, 75 mg, read-out: Plasma Tmax): 9 h | ELF Tmax [4, 12]: IPD^b | Plasma Tmax [4, 12]: IPD^b | fraction of administered nintedanib excreted in the urine [5]: About 80% | sodium chloride concentration at which nintedanib is physically unstable in solution [6]: ≥ 30 mM | inhibition [7]: inhibited | inhibition [8]: inhibited

Br.COC(=O)c1ccc2c(c1)NC(=O)/C2=C(\Nc1ccc(N(C)C(=O)CN2CCN(C)CC2)cc1)c1ccccc1 [Batch 1]
PSD D10 [9]: 0.04 μm | PSD D50 [9]: 1.03 μm | PSD D90 [9]: 2.66 μm

COC(=O)c1ccc2c(c1)NC(=O)/C2=C(\Nc1ccc(N(C)C(=O)CN2CCN(C)CC2)cc1)c1ccccc1 [Micronised Nintedanib HBr]
D10 ([9]; 1 month 25/60): 0.6 mcm | D50 ([9]; 1 month 25/60): 1.6 mcm | D90 ([9]; 1 month 25/60): 3.0 mcm | D10 ([9]; 1 month 40/75): 0.6 mcm | D50 ([9]; 1 month 40/75): 1.5 mcm | D90 ([9]; 1 month 40/75): 2.6 mcm | D10 [9, 13]: 0.6 mcm | D50 [9, 13]: 1.5 mcm | D90 [9, 13]: 2.9 mcm | D10 ([9]; T0): 0.5 mcm | D50 ([9]; T0): 1.5 mcm | D90 ([9]; T0): 2.8 mcm | stability of micronised drug substance (PSD, moisture, SEM, XRPD, DSC) [10]: did not change during the study | Water Content ([11]; 1 month 25/60): 5.3% | Water Content ([11]; 1 month 40/75): 5.2% | Water Content [11, 13]: 4.7% | Water Content ([11]; T0): 5.3%

Br.COC(=O)c1ccc2c(c1)NC(=O)/C2=C(\Nc1ccc(N(C)C(=O)CN2CCN(C)CC2)cc1)c1ccccc1 [Batch 2]
PSD D10 [9]: 0.60 μm | PSD D50 [9]: 1.51 μm | PSD D90 [9]: 2.87 μm
